Data from US8222380B2, “Amorphous telithromycin compound” (Sandoz AG, priority 2006, dated 2012).

How the values were obtained:
[1] = Stress storage in closed vial, impurity increase by HPLC; assay type: physicochemical; details: closed vial at 80° C. for 24 hours; spray-dried sample of Example 1
Description: The sample was stressed in a closed vial at 80° C. for 24 hours. An increase in impurities of 0.2 area % was observed when measured by HPLC under the following conditions: column: symmetry C18 3.5 μm; eluent: buffer pH 4.4 (4.76 g KH2PO4 in 2000 ml H2O adjusted to pH 4.4 using H3PO4), acetonitrile (2000 ml buffer+666 ml acetonitrile); measurement at a wavelength of 205 nm; inj. Vol […]; temperature 40° C.

[2] = Stability of the amorphous state on storage judged by XRPD; assay type: physicochemical; details: after 8 weeks of storage
Description: The invention therefore relates to a stable amorphous form of telithromycin (3-De[(2,6-dideoxy-3-C-methyl-3-O-methyl-α-L-ribohexopyranosyl)oxy]-11,12-dideoxy-6-O-methyl-3-oxo-12,11-[oxycarbonyl[[4-[4-(3-pyridinyl)-1H-imidazol-1-yl]butyl]imino]]erythromycin). […] The stable amorphous form of telithromycin as obtained according to example 2 was analyzed by X-ray powder diffraction diagrams, measured using an AXS-Bruker D-8 diffractometer (Cu-radiation, Bragg Brentano Optics, 40 kV, 40 mA, steps 0.01°, time 2 seconds, cut-off 40°, standard sample carrier).

**Q.** For CCC1OC(=O)[C@H](C)C(=O)[C@H](C)[C@@H](OC2OC(C)CC(N(C)C)C2O)[C@](C)(OC)C[C@@H](C)C(=O)[C@H](C)[C@H]2N(CCCCn3cnc(-c4cccnc4)c3)C(=O)O[C@]12C (stereo partly drawn) [amorphous telithromycin, 3-De[(2,6-dideoxy-3-C-methyl-3-O-methyl-α-L-ribohexopyranosyl)oxy]-11,12-dideoxy-6-O-methyl-3-oxo-12,11-[oxycarbonyl[[4-[4-(3-pyridinyl)-1H-imidazol-1-yl]butyl]imino]]erythromycin], which “increase in impurities measured by HPLC” value [1] is on record?
**A.** 0.2 area %

**Q.** What about the “presence of crystalline telithromycin as judged by X-ray powder diffractogram” value [2] of the same compound?
**A.** no signs of the presence of crystalline telithromycin
